Key:
Type in all cases: biochemical
RLK = target: T1, RLK (Homo sapiens, UniProt P42681); assay: RLK IC50 kinase inhibition assay
T1 sequence (P42681 1-527): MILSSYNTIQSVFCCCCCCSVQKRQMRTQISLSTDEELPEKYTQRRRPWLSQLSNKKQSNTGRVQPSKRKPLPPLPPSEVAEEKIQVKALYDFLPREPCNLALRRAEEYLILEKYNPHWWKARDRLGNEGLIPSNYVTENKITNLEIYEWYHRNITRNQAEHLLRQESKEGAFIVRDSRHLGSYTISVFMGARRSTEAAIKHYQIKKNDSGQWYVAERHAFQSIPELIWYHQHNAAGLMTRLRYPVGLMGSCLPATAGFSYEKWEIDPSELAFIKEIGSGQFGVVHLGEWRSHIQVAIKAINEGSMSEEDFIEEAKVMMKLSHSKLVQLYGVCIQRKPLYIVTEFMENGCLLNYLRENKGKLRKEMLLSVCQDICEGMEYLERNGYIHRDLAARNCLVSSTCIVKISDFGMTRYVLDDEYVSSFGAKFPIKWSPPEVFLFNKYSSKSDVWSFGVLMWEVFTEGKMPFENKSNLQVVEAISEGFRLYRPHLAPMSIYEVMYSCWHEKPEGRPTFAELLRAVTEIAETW

BTK = BTK (Homo sapiens, UniProt Q06187); assay: BTK IC50 kinase inhibition assay
Sequence of BTK (Q06187 whole entry): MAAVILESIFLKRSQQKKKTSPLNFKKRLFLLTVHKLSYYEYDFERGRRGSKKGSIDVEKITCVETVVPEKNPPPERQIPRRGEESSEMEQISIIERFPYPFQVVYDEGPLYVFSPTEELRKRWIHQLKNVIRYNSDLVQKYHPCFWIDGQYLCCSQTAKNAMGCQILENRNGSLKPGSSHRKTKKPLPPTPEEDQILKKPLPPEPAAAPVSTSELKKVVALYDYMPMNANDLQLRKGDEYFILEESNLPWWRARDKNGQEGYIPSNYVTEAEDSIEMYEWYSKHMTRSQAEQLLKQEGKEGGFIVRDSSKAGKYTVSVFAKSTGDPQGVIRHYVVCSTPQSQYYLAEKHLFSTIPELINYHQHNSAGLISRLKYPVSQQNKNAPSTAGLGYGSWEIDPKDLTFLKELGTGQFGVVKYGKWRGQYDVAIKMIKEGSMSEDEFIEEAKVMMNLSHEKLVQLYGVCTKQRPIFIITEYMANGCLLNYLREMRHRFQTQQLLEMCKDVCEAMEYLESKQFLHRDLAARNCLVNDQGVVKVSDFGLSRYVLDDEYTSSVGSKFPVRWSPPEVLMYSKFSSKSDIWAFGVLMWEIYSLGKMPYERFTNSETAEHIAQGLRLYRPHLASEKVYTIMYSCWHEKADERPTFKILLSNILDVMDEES

ITK = target: T2, ITK (Homo sapiens, UniProt Q08881); assay: ITK IC50 kinase inhibition assay
T2 sequence (Q08881 1-620): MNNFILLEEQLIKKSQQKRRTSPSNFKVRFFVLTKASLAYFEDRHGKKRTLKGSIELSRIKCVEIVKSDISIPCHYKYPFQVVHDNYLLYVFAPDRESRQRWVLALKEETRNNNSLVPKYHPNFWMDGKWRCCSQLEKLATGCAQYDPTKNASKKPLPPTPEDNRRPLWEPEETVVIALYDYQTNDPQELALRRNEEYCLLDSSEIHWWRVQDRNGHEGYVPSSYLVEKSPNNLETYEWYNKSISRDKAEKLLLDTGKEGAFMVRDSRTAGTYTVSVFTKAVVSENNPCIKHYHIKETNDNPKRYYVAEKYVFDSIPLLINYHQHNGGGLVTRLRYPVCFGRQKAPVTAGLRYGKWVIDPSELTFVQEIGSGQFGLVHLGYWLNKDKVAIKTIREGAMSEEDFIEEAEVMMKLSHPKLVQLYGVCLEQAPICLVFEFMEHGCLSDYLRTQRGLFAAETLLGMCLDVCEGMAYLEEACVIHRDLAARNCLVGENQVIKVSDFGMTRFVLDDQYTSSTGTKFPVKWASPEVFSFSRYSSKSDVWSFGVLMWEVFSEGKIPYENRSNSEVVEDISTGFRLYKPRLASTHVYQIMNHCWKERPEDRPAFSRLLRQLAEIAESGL

JAK3 = target: T3, JAK3 (Homo sapiens, UniProt P52333); assay: JAK3 IC50 kinase inhibition assay
T3 sequence (P52333 1-1124): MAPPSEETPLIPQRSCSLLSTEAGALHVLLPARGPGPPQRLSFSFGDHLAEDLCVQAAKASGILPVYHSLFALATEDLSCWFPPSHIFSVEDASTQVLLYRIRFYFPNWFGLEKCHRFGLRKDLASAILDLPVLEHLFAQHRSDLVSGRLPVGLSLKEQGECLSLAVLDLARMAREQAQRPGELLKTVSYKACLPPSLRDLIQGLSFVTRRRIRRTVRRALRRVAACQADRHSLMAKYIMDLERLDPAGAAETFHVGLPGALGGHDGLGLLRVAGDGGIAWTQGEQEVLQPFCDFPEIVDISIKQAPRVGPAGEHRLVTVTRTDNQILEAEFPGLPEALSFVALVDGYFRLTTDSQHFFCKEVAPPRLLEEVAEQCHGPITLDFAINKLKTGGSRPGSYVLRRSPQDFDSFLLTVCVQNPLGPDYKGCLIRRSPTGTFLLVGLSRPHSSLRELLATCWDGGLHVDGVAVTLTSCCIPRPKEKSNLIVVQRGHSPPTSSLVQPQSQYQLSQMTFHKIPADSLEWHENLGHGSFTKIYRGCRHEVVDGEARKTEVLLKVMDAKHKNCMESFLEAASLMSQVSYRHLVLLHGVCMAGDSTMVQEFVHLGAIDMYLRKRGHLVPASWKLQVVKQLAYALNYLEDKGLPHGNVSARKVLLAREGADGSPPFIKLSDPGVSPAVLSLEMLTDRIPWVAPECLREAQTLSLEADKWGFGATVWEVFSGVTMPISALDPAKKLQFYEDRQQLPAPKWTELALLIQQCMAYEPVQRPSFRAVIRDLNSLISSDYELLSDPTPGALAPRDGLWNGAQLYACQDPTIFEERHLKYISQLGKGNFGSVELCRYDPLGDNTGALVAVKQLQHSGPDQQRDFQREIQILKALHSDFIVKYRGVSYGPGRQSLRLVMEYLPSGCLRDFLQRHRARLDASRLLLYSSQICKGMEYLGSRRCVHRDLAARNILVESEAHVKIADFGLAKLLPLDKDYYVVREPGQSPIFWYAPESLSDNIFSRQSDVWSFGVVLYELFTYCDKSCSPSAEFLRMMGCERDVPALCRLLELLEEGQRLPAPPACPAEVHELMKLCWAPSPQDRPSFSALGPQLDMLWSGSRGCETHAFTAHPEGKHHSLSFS

TXK = target: T4, TXK (Homo sapiens, UniProt P42681); assay: TXK IC50 kinase inhibition assay
T4 sequence (P42681 1-527): T1 sequence (P42681 1-527)

| IC50 (RLK) [nM] | IC50 (BTK) [nM] | IC50 (ITK) [nM] | IC50 (JAK3) [nM] | IC50 (TXK) [nM] | Structure (SMILES) |
| --- | --- | --- | --- | --- | --- |
| 100 to 500 | < 100 | > 500 | > 500 | – | C=CC(=O)N1CCC[C@@H](n2nc(-c3ccc(Oc4ccccc4)cc3)c3cnc(N)nc32)C1 [Compound A11] |
| – | < 100 | > 500 | > 500 | < 100 | C=CC(=O)N1CCC[C@@H](n2nc(-c3ccc(Oc4ccccc4)cc3)c3cncc(F)c32)C1 [Compound A26, (R)-1-(3-(7-fluoro-3-(4-phenoxyphenyl)-1H-pyrazolo[4,3-c]pyridin-1-yl)piperidin-1-yl)prop-2-en-1-one] |
| – | < 100 | > 500 | > 500 | < 100 | C=CC(=O)N1CCC[C@H]1Cn1nc(-c2ccc(Oc3ccccc3)cc2)c2cncc(F)c21 [Compound A27, (S)-1-(2-((7-fluoro-3-(4-phenoxyphenyl)-1H-pyrazolo[4,3-c]pyridin-1-yl)methyl)pyrrolidin-1-yl)prop-2-en-1-one] |
| – | < 100 | > 500 | 100 to 500 | < 100 | C=CC(=O)N1CCC[C@@H](n2nc(-c3ccc(Oc4ccccc4)cc3F)c3cncnc32)C1 [Compound A2, (R)-1-(3-(3-(2-fluoro-4-phenoxyphenyl)-1H-pyrazolo[3,4-d]pyrimidin-1-yl)piperidin-1-yl)prop-2-en-1-one] |
| – | < 100 | > 500 | > 500 | < 100 | C=CC(=O)N1CCC[C@@H](n2nc(-c3ccc(Oc4ccccc4)cc3F)c3cnccc32)C1 [Compound A24, (R)-1-(3-(3-(2-fluoro-4-phenoxyphenyl)-1H-pyrazolo[4,3-c]pyridin-1-yl)piperidin-1-yl)prop-2-en-1-one] |
| – | < 100 | > 500 | > 500 | < 100 | C=CC(=O)N1CCC[C@H]1Cn1nc(-c2ccc(Oc3ccccc3)cc2F)c2cncnc21 [Compound A19, (S)-1-(2-((3-(2-fluoro-4-phenoxyphenyl)-1H-pyrazolo[3,4-d]pyrimidin-1-yl)methyl)pyrrolidin-1-yl)prop-2-en-1-one] |

— US10870652B2, “Compounds and methods for modulating bruton's tyrosine kinase” (CORVUS PHARMACEUTICALS, INC., priority 2016, dated 2020)
